# Data published in PMC8287724, “Reducing Auditory Nerve Excitability by Acute Antagonism of Ca^2+-Permeable AMPA Receptors” (Frontiers in Synaptic Neuroscience, 2021).
# What was measured:
# [1] = biological target: T1, H1 histamine GPCR (Homo sapiens, UniProt P35367); assay: Radioligand binding assay, H1 receptor (transfected HEK-293 cells); settings: antagonist 1 μM
# T1 construct: host or cells: HEK-293 cells
# Experimental: (§1) Binding assays were conducted to evaluate the affinity of test compounds IEM-1460 and IEM-1925 (Eurofins Scientific, Inc.) for 15 targets: the human alpha-1 adrenergic (A1) receptor, histaminergic (H)-2 and−3 receptors, and muscarinic acetylcholine receptors-1 to−5 in transfected CHO cells by radioligand binding. The neuronal α4β2 and neuronal α7 cholinergic acetylcholine receptors were tested in transfected SH-SY5Y cells. The histaminergic-1 and−4 receptors were tested in transfected HEK-293 cells. Ion channel testing for AMPA and N-methyl-D-aspartate (NMDA) was performed in cells from the rat cerebral cortex. […] Non-specific binding was determined in the presence of 1 μM of DCPX. […] The filters were dried and then counted for radioactivity in a scintillation counter (Topcount, Packard) using a scintillation cocktail (Microscint 0, Packard). The results are expressed as a percent inhibition of the control radioligand specific binding: 100-[(measured specific binding)/(control specific binding) × 100]. […]
# (§2) We tested the metabolic stability of the compounds with in vitro liver microsome stability assays (Table 1, right). […] We evaluated the compounds for potential toxicity with assays that test for inhibition of off-target ion channels and receptors. […]
# [2] = biological target: T2, hERG potassium channel (Kv 11.1) (Homo sapiens, UniProt Q12809); assay: Radioligand binding assay, hERG potassium channel; settings: antagonist 1 μM, read-out: Mean% inhibition (N = 2) of radioligand binding
# T2 construct: Eurofins Scientific, Inc
# Experimental: as §1, §2
# [3] = test system: NMDA glutamate; assay: Radioligand binding assay, NMDA receptor (rat cerebral cortex); settings: antagonist 1 μM
# Experimental: as §1, §2
# [4] = biological target: T3, M4 acetylcholine GPCR (Homo sapiens, UniProt P08173); assay: Radioligand binding assay, M4 receptor (transfected CHO cells); settings: antagonist 1 μM
# T3 construct: host or cells: CHO cells
# Experimental: as §1, §2
# [5] = In vitro microsomal stability assay, mouse; type: in vitro ADME; settings: pH 7.4; mouse liver microsomes, 1 μM compound, 37°C; read-out: Half-life (min) Mean (N = 2)
# Experimental: The stability of IEM-1460 in the presence of guinea pig liver microsomes (BioIVT, PN: X008070) or IEM-1925 in the presence of human (BioIVT, PN: M00101), mouse, or guinea pig liver microsomes was evaluated (Paraza Pharma, Inc., Montreal, Quebec, Canada). Both IEM-1925 and IEM-1460 were incubated with microsomes at 37°C for a total of 45 min. Working solutions were prepared in 100 mM potassium phosphate buffer and the final reaction was performed at pH 7.4 in 100 mM potassium phosphate buffer containing 0.5 mg/mL liver microsomal protein. Phase I metabolism was assessed by adding NADPH to a final concentration of 1 mM and collecting samples at time points 0, 5, 15, 30, and 45 min. All collected samples were quenched 1:1 with ice-cold stop solution (1 μM labetalol and 1 μM glyburide in acetonitrile) and centrifuged to remove precipitated protein. […] Samples were analyzed by LC-MS/MS using a Thermo Vanquish UPLC and a Thermo Quantis triple quadrupole mass spectrometer. […] Reference compounds were also assessed to ensure accuracy and precision of experimental protocol: imipramine and verapamil for human liver microsomes, diphenhydramine and verapamil for mouse liver microsomes, and warfarin and verapamil for guinea pig liver microsomes. […] Half-life was determined from a plot of the natural logarithm of the peak area ratio (remaining compound peak area/internal standard peak area) against time. […]
# [6] = biological target: T4, M1 acetylcholine GPCR (Homo sapiens, UniProt P11229); assay: Radioligand binding assay, M1 receptor (transfected CHO cells); settings: antagonist 1 μM
# T4 construct: host or cells: CHO cells
# Experimental: as §1, §2
# [7] = biological target: T5, M2 acetylcholine GPCR (Homo sapiens, UniProt P08172); assay: Radioligand binding assay, M2 receptor (transfected CHO cells); settings: antagonist 1 μM
# T5 construct: host or cells: CHO cells
# Experimental: as §1, §2
# [8] = biological target: T6, nAChR alpha7 (Homo sapiens, UniProt P36544); assay: Radioligand binding assay, neuronal α7 nicotinic receptor (transfected SH-SY5Y cells); settings: antagonist 1 μM
# T6 construct: host or cells: SH-SY5Y cells
# Experimental: as §1, §2
# [9] = test system: AMPA glutamate (GluA2-containing); assay: Radioligand binding assay, AMPA receptor (rat cerebral cortex); settings: antagonist 1 μM
# Experimental: as §1, §2
# [10] = biological target: T7, M5 acetylcholine GPCR (Homo sapiens, UniProt P08912); assay: Radioligand binding assay, M5 receptor (transfected CHO cells); settings: antagonist 1 μM
# T7 construct: host or cells: CHO cells
# Experimental: as §1, §2
# [11] = biological target: T8, M3 acetylcholine GPCR (Homo sapiens, UniProt P20309); assay: Radioligand binding assay, M3 receptor (transfected CHO cells); settings: antagonist 1 μM
# T8 construct: host or cells: CHO cells
# Experimental: as §1, §2
# T4 sequence (P11229 whole entry): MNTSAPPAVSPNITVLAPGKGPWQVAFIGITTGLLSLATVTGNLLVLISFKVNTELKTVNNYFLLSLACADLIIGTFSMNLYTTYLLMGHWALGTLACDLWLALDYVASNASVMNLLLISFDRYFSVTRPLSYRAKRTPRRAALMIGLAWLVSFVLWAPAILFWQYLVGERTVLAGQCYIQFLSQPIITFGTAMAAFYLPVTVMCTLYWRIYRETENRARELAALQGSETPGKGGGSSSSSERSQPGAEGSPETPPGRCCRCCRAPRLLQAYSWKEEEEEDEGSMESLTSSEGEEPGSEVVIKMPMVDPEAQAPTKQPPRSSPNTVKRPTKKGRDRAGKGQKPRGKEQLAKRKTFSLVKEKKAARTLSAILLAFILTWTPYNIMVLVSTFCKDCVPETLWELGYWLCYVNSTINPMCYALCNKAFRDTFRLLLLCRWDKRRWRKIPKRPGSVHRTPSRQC
# T2 sequence (Q12809 whole entry): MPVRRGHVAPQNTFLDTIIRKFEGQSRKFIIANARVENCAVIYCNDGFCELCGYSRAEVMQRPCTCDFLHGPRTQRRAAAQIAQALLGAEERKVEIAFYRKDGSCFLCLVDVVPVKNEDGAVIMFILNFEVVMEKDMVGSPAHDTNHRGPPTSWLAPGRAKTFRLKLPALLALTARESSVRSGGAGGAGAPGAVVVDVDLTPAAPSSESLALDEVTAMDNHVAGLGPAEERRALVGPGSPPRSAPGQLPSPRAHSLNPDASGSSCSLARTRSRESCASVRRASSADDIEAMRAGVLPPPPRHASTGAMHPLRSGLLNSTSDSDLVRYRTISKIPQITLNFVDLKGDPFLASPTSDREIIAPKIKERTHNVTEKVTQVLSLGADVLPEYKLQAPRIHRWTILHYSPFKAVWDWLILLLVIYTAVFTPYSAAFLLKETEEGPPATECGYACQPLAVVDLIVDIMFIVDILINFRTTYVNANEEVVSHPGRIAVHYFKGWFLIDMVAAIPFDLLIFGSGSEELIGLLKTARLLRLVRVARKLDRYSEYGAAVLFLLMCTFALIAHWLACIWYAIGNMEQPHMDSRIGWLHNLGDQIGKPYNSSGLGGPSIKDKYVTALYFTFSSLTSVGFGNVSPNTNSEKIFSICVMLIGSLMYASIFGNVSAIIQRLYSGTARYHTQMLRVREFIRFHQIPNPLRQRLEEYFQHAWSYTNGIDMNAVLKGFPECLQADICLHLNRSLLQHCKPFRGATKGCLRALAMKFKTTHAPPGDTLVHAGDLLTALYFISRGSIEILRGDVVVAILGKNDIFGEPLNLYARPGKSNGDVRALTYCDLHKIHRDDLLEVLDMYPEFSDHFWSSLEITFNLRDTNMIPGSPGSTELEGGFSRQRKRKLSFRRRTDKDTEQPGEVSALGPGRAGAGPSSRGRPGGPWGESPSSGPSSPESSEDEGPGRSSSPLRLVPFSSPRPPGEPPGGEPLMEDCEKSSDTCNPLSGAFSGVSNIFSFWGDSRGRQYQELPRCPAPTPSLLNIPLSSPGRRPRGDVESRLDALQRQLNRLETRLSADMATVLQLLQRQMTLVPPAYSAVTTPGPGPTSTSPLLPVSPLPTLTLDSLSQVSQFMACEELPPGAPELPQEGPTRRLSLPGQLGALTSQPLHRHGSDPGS
# T6 sequence (P36544 23-502): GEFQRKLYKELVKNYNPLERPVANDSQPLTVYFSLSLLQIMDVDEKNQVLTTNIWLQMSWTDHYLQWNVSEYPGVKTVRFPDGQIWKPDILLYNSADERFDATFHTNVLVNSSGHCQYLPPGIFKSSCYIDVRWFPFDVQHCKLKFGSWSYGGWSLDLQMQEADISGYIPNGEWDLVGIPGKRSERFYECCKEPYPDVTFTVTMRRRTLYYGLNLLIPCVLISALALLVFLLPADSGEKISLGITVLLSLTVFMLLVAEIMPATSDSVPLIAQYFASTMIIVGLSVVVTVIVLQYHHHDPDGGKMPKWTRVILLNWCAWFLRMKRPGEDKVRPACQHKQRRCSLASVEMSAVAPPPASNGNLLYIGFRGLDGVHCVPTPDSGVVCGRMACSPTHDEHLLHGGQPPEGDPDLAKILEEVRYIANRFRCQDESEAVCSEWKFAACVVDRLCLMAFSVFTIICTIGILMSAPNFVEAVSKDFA
# T8 sequence (P20309 whole entry): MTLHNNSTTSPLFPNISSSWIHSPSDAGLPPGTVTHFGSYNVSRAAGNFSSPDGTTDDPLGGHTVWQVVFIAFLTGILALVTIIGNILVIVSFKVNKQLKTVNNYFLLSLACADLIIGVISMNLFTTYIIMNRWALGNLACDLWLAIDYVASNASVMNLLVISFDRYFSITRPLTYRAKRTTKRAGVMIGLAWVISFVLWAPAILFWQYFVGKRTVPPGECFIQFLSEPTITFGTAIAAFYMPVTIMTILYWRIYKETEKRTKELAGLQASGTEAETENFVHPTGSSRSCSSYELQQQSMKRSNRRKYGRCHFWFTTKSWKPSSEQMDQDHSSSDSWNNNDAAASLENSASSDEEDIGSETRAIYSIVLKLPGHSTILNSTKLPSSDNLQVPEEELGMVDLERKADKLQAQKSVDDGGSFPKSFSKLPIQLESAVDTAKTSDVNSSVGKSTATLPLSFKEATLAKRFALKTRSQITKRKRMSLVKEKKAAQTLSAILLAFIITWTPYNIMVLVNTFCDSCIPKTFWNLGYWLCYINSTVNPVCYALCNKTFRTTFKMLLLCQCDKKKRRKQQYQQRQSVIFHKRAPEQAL
# T5 sequence (P08172 whole entry): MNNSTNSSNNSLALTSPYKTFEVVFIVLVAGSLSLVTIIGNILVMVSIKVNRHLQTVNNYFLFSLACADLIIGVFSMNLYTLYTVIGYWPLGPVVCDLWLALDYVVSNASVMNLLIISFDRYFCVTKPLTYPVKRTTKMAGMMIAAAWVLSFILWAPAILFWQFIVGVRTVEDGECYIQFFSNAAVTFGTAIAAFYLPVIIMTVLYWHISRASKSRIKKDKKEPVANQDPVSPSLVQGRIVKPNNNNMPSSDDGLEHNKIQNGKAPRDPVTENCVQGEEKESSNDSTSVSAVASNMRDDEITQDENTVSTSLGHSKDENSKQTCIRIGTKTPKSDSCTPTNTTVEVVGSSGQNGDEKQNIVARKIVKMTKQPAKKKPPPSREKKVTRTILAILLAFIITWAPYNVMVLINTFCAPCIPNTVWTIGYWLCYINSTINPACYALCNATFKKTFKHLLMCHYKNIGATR
# T7 sequence (P08912 whole entry): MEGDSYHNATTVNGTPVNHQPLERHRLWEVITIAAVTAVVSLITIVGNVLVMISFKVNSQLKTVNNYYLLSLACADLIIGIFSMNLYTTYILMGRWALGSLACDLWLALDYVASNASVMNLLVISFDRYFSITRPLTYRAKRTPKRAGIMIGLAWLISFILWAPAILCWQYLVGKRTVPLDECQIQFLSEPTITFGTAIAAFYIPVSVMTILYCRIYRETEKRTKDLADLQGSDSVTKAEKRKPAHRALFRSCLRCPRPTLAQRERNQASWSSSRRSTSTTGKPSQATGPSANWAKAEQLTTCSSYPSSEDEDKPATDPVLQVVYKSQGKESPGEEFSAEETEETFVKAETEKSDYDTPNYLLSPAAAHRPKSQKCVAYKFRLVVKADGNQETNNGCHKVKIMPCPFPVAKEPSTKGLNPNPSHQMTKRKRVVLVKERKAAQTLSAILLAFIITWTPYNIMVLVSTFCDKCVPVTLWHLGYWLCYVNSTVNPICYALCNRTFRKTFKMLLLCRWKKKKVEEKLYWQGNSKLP
# T1 sequence (P35367 whole entry): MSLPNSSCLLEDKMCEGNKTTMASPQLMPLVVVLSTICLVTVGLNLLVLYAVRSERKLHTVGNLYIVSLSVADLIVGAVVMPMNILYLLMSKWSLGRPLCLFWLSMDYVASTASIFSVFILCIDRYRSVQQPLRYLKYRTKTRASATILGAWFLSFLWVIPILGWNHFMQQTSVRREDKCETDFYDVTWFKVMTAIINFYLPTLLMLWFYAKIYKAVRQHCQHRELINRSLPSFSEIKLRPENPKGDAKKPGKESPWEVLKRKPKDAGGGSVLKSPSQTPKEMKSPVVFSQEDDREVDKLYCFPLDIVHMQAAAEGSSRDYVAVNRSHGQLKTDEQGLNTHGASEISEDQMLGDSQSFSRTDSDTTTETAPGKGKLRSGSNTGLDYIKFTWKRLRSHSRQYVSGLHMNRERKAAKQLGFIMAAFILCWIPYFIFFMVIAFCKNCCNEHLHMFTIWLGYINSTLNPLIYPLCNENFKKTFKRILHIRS
# T3 sequence (P08173 whole entry): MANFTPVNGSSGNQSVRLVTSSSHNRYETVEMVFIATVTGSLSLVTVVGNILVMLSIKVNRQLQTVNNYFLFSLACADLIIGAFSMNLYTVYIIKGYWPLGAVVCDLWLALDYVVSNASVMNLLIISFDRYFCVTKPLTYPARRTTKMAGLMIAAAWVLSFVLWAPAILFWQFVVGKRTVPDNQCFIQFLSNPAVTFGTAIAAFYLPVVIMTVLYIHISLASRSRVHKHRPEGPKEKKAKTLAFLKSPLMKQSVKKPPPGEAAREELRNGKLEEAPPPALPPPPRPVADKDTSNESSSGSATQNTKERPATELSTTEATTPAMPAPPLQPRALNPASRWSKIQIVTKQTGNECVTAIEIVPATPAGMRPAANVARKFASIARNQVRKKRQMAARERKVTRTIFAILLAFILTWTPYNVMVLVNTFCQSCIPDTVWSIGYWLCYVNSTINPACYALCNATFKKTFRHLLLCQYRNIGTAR
SMILES,Mean% inhibition (N = 2) of radioligand binding [1] [%],inhibition at 1 μM [2] [%],Mean% inhibition (N = 2) of radioligand binding [3] [%],Mean% inhibition (N = 2) of radioligand binding [4] [%],half-life at 1 μM [5] [min],Mean% inhibition (N = 2) of radioligand binding [6] [%],Mean% inhibition (N = 2) of radioligand binding [7] [%],Mean% inhibition (N = 2) of radioligand binding [8] [%],Mean% inhibition (N = 2) of radioligand binding [9] [%],Mean% inhibition (N = 2) of radioligand binding [10] [%],Mean% inhibition (N = 2) of radioligand binding [11] [%]
C[N+](C)(C)CCCCCNCC12CC3CC(CC(C3)C1)C2 [IEM-1460],<1,< 5,<1,37,> 300,<1,<1,<1,<1,5.2,15
NCCCCCNC1(c2ccccc2)CCCCC1 [IEM-1925],<1,< 1,<1,19,> 300,<1,<1,<2,9.5,<5,<5
